Test results taken from paper PMC10487436, “Towards Anticancer and Antibacterial Agents: Design and Synthesis of 1,2,3-Triazol-quinobenzothiazine Derivatives” (International Journal of Molecular Sciences, 2023).

Legend:
[1] = system: SNB-19 (human glioblastoma); experiment: WST-1 proliferation assay, SNB-19; assay type: cell-based; conditions: Homo sapiens, SNB-19, 72 h exposure
Description: (§1) Compounds were evaluated for their antiproliferative activity using three cultured cell lines: A549 (human lung carcinoma, ATCC, Manassas, VA, USA), SNB-19 (human glioblastoma, DSMZ, German Collection of Microorganisms and Cell Cultures), T-47D (human breast cancer, ATCC, Manassas, VA, USA), and NHDF (normal human dermal fibroblasts, ATCC, Manassas, VA, USA). The cultured cells were kept at 37 °C and 5% CO2. The cells were seeded (1 × 10^4 cells/well/100 μL DMEM supplemented with 10% FCS, streptomycin, and penicillin) using 96-well plates (corning). Cells were counted in a hemocytometer (Burker chamber) using a phase contrast Olympus IX50 microscope equipped with a Sony SSC-DC58 AP camera and an Olympus DP10 digital camera.
(§2) The antiproliferative effect of the compounds exerted on cancer and normal cells was determined using the Cell Proliferation Reagent WST-1 assay (Roche Molecular Biochemicals, Mannheim, Germany). This assay is based on a colorimetric method using the enzymatic ability of viable cells to cause the bright, red-colored stable tetrazolium monosodium salt [2-(4-iodophenyl)-3-(4-nitrophenyl)-5-(2,4-disulfophenyl)–2H-tetra-zolium] to transform into the dark, red-colored soluble formazan. […] An increase in the amount of formazan dye formed correlated with the number of metabolically active cells in the culture. The formazan dye produced by metabolically active cells was quantified by absorbance readings at appropriate wavelengths. The examined cells were exposed to the tested compounds (1 mM DMSO stock) for 72 h at various concentrations (0.1–100 μM). The control was performed in order to eliminate the DMSO effect at the concentration used. Cell cultures were incubated with WST-1 (10 μL) for 1 h. The absorbance of the samples was measured against a background control at 450 nm using a microplate reader with a reference wavelength at 600 nm. The obtained results are expressed as the means of at least two independent experiments performed in triplicate. The antiproliferative activity of the tested compounds was compared to that of cisplatinum. The values of IC50 (a concentration of a compound that is required for 50% inhibition) were calculated from the dose-response relationship with respect to control. The results were reported as the mean (±std) of three separate experiments.

[2] = system: A549 (human lung carcinoma); experiment: WST-1 proliferation assay, A549; assay type: cell-based; conditions: Homo sapiens, A549, 72 h exposure
Description: as §1, §2

[3] = system: T-47D (human breast cancer); experiment: WST-1 proliferation assay, T47D; assay type: cell-based; conditions: Homo sapiens, T47D, 72 h exposure
Description: as §1, §2

[4] = system: NHDF (normal human dermal fibroblasts); experiment: WST-1 proliferation assay, NHDF; assay type: cell-based; conditions: Homo sapiens, NHDF, normal cells, 72 h exposure
Description: as §1, §2

[5] = system: Staphylococcus aureus ATCC 29213; experiment: MIC, microtitration broth method, SA; assay type: cell-based; conditions: ATCC29213, 24 h at 37 °C
Description: (§3) In vitro antibacterial activity of the synthesized compounds was evaluated against representatives of multidrug-resistant bacteria, three clinical isolates of methicillin-resistant S. aureus: clinical isolates of animal origin, MRSA 63718 (Department of Infectious Diseases and Microbiology, Faculty of Veterinary Medicine, University of Veterinary Sciences Brno, Czech Republic), carrying the mecA gene; and MRSA SA 630 and MRSA SA 3202 [52] (National Institute of Public Health, Prague, Czech Republic), both of human origin. […] Vancomycin- and methicillin-susceptible S. aureus ATCC 29213 and vancomycin-susceptible Enterococcus faecalis ATCC 29212, obtained from the American Type Culture Collection, were used as the reference and quality control strains. Three vanA gene-carrying vancomycin-resistant isolates of E. faecalis (VRE 342B, VRE 368, VRE 725B) were provided by Oravcova et al..
(§4) The minimum inhibitory concentrations (MICs) were evaluated by the microtitration broth method according to the CLSI, with some modifications. The compounds were dissolved in DMSO (Sigma, St. Louis, MO, USA) to obtain a concentration of […] and diluted in a microtitration plate in an appropriate medium, i.e., Cation Adjusted Mueller–Hinton Broth (CaMH, Oxoid, Basingstoke, UK) for staphylococci, and Brain Heart Infusion Broth (BHI, Oxoid) for enterococci, to reach the final concentration of 256–0.125 µg/mL. Microtiter plates were inoculated with test micro-organisms so that the final concentration of bacterial cells was 10^5. […] A drug-free control and a sterility control were included. The plates were incubated for 24 h at 37 °C for staphylococci and enterococci. […] The experiments were repeated three times.

[6] = system: methicillin-resistant S. aureus SA 3202; experiment: MIC, microtitration broth method, MRSA1; assay type: cell-based; conditions: Staphylococcus aureus; 24 h at 37 °C
Description: as §3, §4

[7] = system: methicillin-resistant S. aureus SA 630; experiment: MIC, microtitration broth method, MRSA2; assay type: cell-based; conditions: Staphylococcus aureus; 24 h at 37 °C
Description: as §3, §4

[8] = system: methicillin-resistant S. aureus 63718; experiment: MIC, microtitration broth method, MRSA3; assay type: cell-based; conditions: Staphylococcus aureus; 24 h at 37 °C
Description: as §3, §4

[9] = system: Enterococcus faecalis ATCC 29213; experiment: MIC, microtitration broth method, EF; assay type: cell-based; conditions: ATCC29213, 24 h at 37 °C
[10] = system: vancomycin-resistant E. faecalis VRE 342B; experiment: MIC, microtitration broth method, VRE1; assay type: cell-based; conditions: Enterococcus faecalis, 24 h at 37 °C
Description: as §3, §4

[11] = system: vancomycin-resistant E. faecalis VRE 368; experiment: MIC, microtitration broth method, VRE2; assay type: cell-based; conditions: Enterococcus faecalis, 24 h at 37 °C
Description: as §3, §4

[12] = system: vancomycin-resistant E. faecalis VRE 725B; experiment: MIC, microtitration broth method, VRE3; assay type: cell-based; conditions: Enterococcus faecalis, 24 h at 37 °C
Description: as §3, §4

[13] = system: Mycobacterium smegmatis ATCC 700084; experiment: MIC, broth dilution micro-method, MS; assay type: cell-based; conditions: Mycolicibacterium smegmatis, ATCC700084, 72 h; 3 days at 37 °C
[14] = system: Mycobacterium marinum CAMP 5644; experiment: MIC, broth dilution micro-method, MM; assay type: cell-based; conditions: CAMP5644, 504 h, 21 days at 28 °C
[15] = system: methicillin-resistant S. aureus 63718; experiment: MBC, agar aliquot subculture method, MRSA3; assay type: cell-based; conditions: Staphylococcus aureus
Description: (§5) For the above-mentioned strains/isolates, the agar aliquot subculture method was used as a test for bactericidal agents. After the MIC value determination, the inoculum was transferred to CaMH (Oxoid) for staphylococci, BHI (Oxoid) for enterococci, and Middlebrook 7H9 (Difco) for mycobacteria medium using a multipoint inoculator. As indicated above, the plates were incubated on a thermostat at 37 °C for the appropriate time for each micro-organism. The lowest concentration of test compound at which ≤5 colonies were obtained was then evaluated as MBC, corresponding to a 99.9% decrease in CFU relative to the original inoculum.

[16] = system: Mycobacterium smegmatis ATCC 700084; experiment: MBC, agar aliquot subculture method, MS; assay type: cell-based; conditions: Mycolicibacterium smegmatis, ATCC700084
Description: as §5

[17] = system: Mycobacterium marinum CAMP 5644; experiment: MBC, agar aliquot subculture method, MM; assay type: cell-based; conditions: CAMP5644
Description: as §5

[18] = system: Mycobacterium smegmatis ATCC 700084; conditions: 3 days

Structure (SMILES) | IC50 [1] [µM] | IC50 [2] [µM] | IC50 [3] [µM] | MIC [5] [µM] | MIC [6] [µM] | MIC [7] [µM] | MIC [8] [µM] | MIC [9] [µM] | MIC [10] [µM] | MIC [11] [µM] | MIC [12] [µM] | MIC [13] [µM] | MIC [14] [µM] | IC50 [4] [µM] | MBC [15] [µM] | MBC [16] [µM] | MBC [17] [µM] | further results
C[n+]1cc2c(c3ccccc31)Nc1c(OCc3cn(Cc4ccccc4)nn3)cccc1S2 [2f, 5-Methyl-11-(1-benzyl-1H-1,2,3-triazol-4-yl)methoxy-12H-quino [3,4-b][1,4]benzothiazinium chloride] | 8.5 ± 0.5 | 11.5 ± 0.6 | 20.5 ± 1.4 | > 524 | > 524 | > 524 | 524 | > 524 | > 524 | > 524 | > 524 | 65.5 | 65.5 | 30.5 ± 2.1 | – | 65.5 | 65.5 | –
C[n+]1cc2c(c3ccccc31)Nc1c(OCc3cn(Cc4ccc([N+](=O)[O-])cc4)nn3)cccc1S2 [2i, 5-Methyl-11-[1-(4-nitrobenzyl)-1H-1,2,3-triazol-4-yl]methoxy-12H-quino [3,4-b][1,4]benzothiazinium chloride] | 4.9 ± 0.3 | 9 ± 0.4 | 2.8 ± 0.2 | 524 | 524 | 524 | 524 | > 524 | > 524 | > 524 | 524 | 65.5 | 131 | > 100 | – | 65.5 | 131 | –
C=CCn1cc(COc2ccccc2N)nn1 [5a, 1-allyl-4-(2-aminophenoxy)methyl-1H-1,2,3-triazole] | > 100 | > 100 | > 100 | – | – | – | – | – | – | – | – | – | – | > 100 | – | – | – | –

Second part, led by results:

IC50 [1] [µM] | IC50 [2] [µM] | IC50 [3] [µM] | MIC [5] [µM] | MIC [6] [µM] | MIC [7] [µM] | MIC [8] [µM] | MIC [9] [µM] | MIC [10] [µM] | MIC [11] [µM] | MIC [12] [µM] | MIC [13] [µM] | MIC [14] [µM] | Structure (SMILES) | IC50 [4] [µM] | MBC [15] [µM] | MBC [16] [µM] | MBC [17] [µM] | further results
2.7 ± 0.4 | 1.8 ± 0.2 | 5.3 ± 0.6 | 524 | > 524 | > 524 | 262 | > 524 | > 524 | > 524 | 524 | 65.5 | 65.5 | C=CCn1cc(COc2ccc3c(c2)Nc2c(c[n+](C)c4ccccc24)S3)nn1 [2b, 5-Methyl-10-(1-allyl-1H-1,2,3-triazol-4-yl)methoxy-12H-quino [3,4-b][1,4]benzothiazinium chloride] | > 100 | 262 | 65.5 | 65.5 | –
4.1 ± 0.5 | 5.7 ± 0.9 | 7.6 ± 0.4 | 524 | 524 | 524 | 524 | > 524 | > 524 | > 524 | 524 | 65.5 | 131 | C=CCn1cc(COc2cccc3c2Nc2c(c[n+](C)c4ccccc24)S3)nn1 [2c, 5-Methyl-11-(1-allyl-1H-1,2,3-triazol-4-yl)methoxy-12H-quino [3,4-b][1,4]benzothiazinium chloride] | > 100 | – | 65.5 | 131 | –
42.9 ± 1.8 | 14.3 ± 0.8 | 15.4 ± 1.1 | > 524 | > 524 | > 524 | 262 | > 524 | > 524 | > 524 | > 524 | 16.3 | 32.7 | C[n+]1cc2c(c3ccccc31)Nc1cc(OCc3cn(-c4ccc(Cl)cc4)nn3)ccc1S2 [2n, 5-Methyl-10-(1-(4-chlorophenyl)-1H-1,2,3-triazol-4-yl)methoxy-12H-quino [3,4-b][1,4]benzothiazinium chloride] | > 100 | 262 | 16.3 | 32.7 | Conc.: lowest multiple of MBC with at least 70% inhibition of respiratory activity ([18]; MTT): 1× MIC (1× MBC); Conc.: lowest multiple of MIC with at least 70% inhibition of respiratory activity ([18]; MTT): 1× MIC (1× MBC); viability of M. smegmatis at MIC value ([18]; Mycobacterium smegmatis): less than 70%; M. smegmatis Respiration Inhibition ([18]; at the concentration (lowest multiple of MIC with at least 70% inhibition)): 85.9%
